In patent US11712432B2, “Method of treating cancer with an elevated glycogen content” (University of Kentucky Research Foundation, priority 2018, dated 2023):
“Also recorded” adds a separate entry of the source. Where two headings read alike, the source gives them in different places.

Legend:
[1] = tested on: HEK293 cells; assay: GP localization by immunofluorescence after leptomycin; assay type: cell-based; settings: leptomycin B for 3 hours
Excerpt: FIGS. 11A-E show images illustrating that malin ubiquitination of GPBB drives nuclear localization. (A) Immunoblotting analysis of HSP70, laforin, glycogen debranching enzyme (GDE), branching enzyme (BE), and glycogen phosphorylase (GP) with anti-tubulin (Tub) as the loading control in empty vector (EV) or malin-overexpressing (malin-OE) HEK293 cells. (B) Localization of exogenously expressed malin and GP in HEK293 cells assessed by immunofluorescence. (C) In vitro ubiquitination assay using recombinant E1, E2 (UbcH5a), malin, and myc-GP followed by immunoprecipitation with anti-myc, SDS-PAGE, and immunoblotting analysis with an antibody detecting ubiquitin. (D) Effect of inhibition of nuclear […] with leptomycin on GP localization. HEK293 cells were transfected with GFP-MEK or empty vector for the analysis of endogenous GP. Twenty-four hours post-transfection, cells were exposed to leptomycin B for 3 hours, and protein localization was assessed by immunofluorescence. (E) Schematic model for GP nuclear translocation after malin-mediated ubiquitination. All data are representative of three experiments.
Since GPBB is a novel malin-interacting protein, malin-dependent regulation of its localization was of interest. GPBB is largely localized to the cytoplasm (FIG. 11B). […]

[2] = tested on: AMPK; assay: p-AMPK and p-ACC after metformin treatment of ES cells; assay type: cell-based
Procedure: Whole-cell extracts were generated in RIPA buffer (0.5% deoxycholate, 1% IGEPAL-CA630, 0.1% sodium dodecyl sulfate, 150 mM NaCl, 50 mM Tris-8.1), lysates were cleared by centrifugation and protein concentrations were quantified with the Pierce BCA Protein Assay Kit (Thermo). For western blotting, 25 μg of protein extract per sample was denatured with heat and reducing agents, separated on a 4-12% acrylamide gel (BioRad) and transferred to PVDF (BioRad). Antibodies used for western blotting were: malin (Abcam, 1:1,000), acetyl-H3 (EMDmillipore, 1:1,000), pan-methylation (AbCAM, 1:1,000), myc (Abcam, 1:500), branching enzyme (Lsbio, 1:500), glycogen debranching enzyme (LSBio, 1:1,000), glycogen phosphorylase liver isoform (Cell Signaling Technology 46955 1:2,000), glycogen phosphorylase brain isoform (LSBio, 1:1,000), GAPDH (Abcam 1:1,0000), Histone H3 (Abcam ab1791, 1:20,000), H3K27Ae (Abcam, 1:500), Flag-M2-HRP (Sigma, 1:5000), HSP70 (Abcam, 1:5000) and H3K27me3 (Millipore 07-449; 1:4,000). Each primary antibody was incubated overnight at 4° C. Tubulin (Abcam, 1:20,000) was used as a loading control. All antibodies have detailed species validation available online from vendors. The secondary antibody anti-rabbit IgG, HRP-linked Antibody (Cell Signaling 7074, 1:5,000) or anti-mouse IgG, HRP-linked antibody (Cell Signaling 7076, 1:5,000) was incubated for 1 h at room temperature. After washing, chemiluminescence images were acquired using the ChemiDocMP (BioRad).
Malin-overexpression cells are more sensitive to the AMPK-activator metformin. Since aberrant ES-glycogen binds to AMPK with high affinity and is inhibitory over p-AMPK activity, malin-OE cells that normalize glycogen architecture should be more sensitive to AMPK activators. Both A673-EV and A673-malin-OE cells were treated with 2 mM metformin and both p-AMPK and p-ACC were assessed.

[3] = general statement; cited from earlier work
[4] = tested on: A673; assay: Total glycogen in guaiacol treated ES cell lines; assay type: cell-based; settings: at ~20 μM (IC50), A673 shown
Procedure: Cells were washed twice in PBS and then lysed in 20 mM NaAcetate pH 5.3, 150 mM NaCl, 10% (v/v) glycerol, 1% (v/v) NP-40. Lysates were centrifuged at 10,000×g at 4° C. for ten minutes. Cleared lysates or purified glycogen were dissolved in ddH2O, followed by acid hydrolysis with 2N HCL for 3 h at 98° C. The reaction was quenched with 2N NaOH for subsequent experiments. Glycogen-derived glucose molecules were measured by either biochemical assay or gas chromatography-mass spectrometry (GC-MS). For the biochemical assay, a portion of the digested lysate was incubated for half an hour at room temperature with 100 U L^−1 of both hexokinase and glucose-6-phosphate dehydrogenase (Sigma) in 50 mM Tris-HCl pH 7.5, 5 mM MgCl2, 0.5 mM ATP, 0.5 mM NAD^+. The absorbance was measured at 340 nm using glucose standards to determine glycogen concentration in lysates; undigested lysates were used for background subtraction. […]
Guaiacol as a therapeutic agent to target ES in vitro and in vivo. Glycogen metabolism has not been evaluated as an anti-cancer target in ES. […] Cell viability after treatment of guaiacol was assessed at various concentrations for 48 hrs in three different ES cell lines (TC32, A673 and HS822T). […]

[5] = tested on: AMPK; assay: Metformin induced AMPK activation (p-ACC) in guaiacol treated cells; assay type: cell-based; settings: guaiacol treated cells plus metformin
[6] = tested on: TC32; assay: Cell viability after guaiacol treatment, TC32; assay type: cell-based; settings: Homo sapiens, TC-32; TC32, 48 hrs; read-out: IC50 (50% cell viability)
Procedure: (§1) Guaiacol as a therapeutic agent to target ES in vitro and in vivo. Glycogen metabolism has not been evaluated as an anti-cancer target in ES. Guaiacol is a naturally occurring compound that is a GYS inhibitor. […] Cell viability after treatment of guaiacol was assessed at various concentrations for 48 hrs in three different ES cell lines (TC32, A673 and HS822T). Guaiacol IC50 (50% cell viability) for all three cell lines is ˜20 μM which corresponds to a 3-fold reduction in total glycogen (A673 is shown in FIGS. 31A-C).

[7] = tested on: HS822T; assay: Cell viability after guaiacol treatment, HS822T; assay type: cell-based; settings: 48 hrs, read-out: IC50 (50% cell viability)
Procedure: as §1

[8] = tested on: A673 xenograft; assay: A673 xenograft model of ES, tumor size; assay type: in vivo, athymic nude mice; settings: 20 mg/kg daily intraperitoneal vs PBS, 15 weeks
Procedure: (§2) FIGS. 31A-E show graphs illustrating in vitro and in vivo efficacy of the glycogen synthase inhibitor guaiacol as an anti-ES agent. (A) A673 Ewing's sarcoma cells were treated with increasing concentrations of guaiacol. (B) The IC50 for guaiacol is ˜20 μm in A673 cells. […] (E) A673 cells (10^7) were injected subcutaneously in athymic nude mice and when the tumor reached 0.1 cm^3 in size, a daily intraperitoneal injection was initiated of either PBS or guaiacol (20 mg/kg) and tumor size was measured over 15 weeks.
(§3) The efficacy of guaiacol was further tested in the xenograft model of ES. A673 cells (10^6) were injected subcutaneously in athymic nude mice and when the tumor reached 0.1 cm^3 in size daily IP injection of either PBS or guaiacol (20 mg/kg) was initiated and tumor size was measured over 15 weeks.

[9] = tested on: A673 xenograft tumors; assay: Normalized glycogen levels in treated xenograft tumors; assay type: in vivo, athymic nude mice; settings: FIG. 31C
Procedure: as §2, §3

[10] = general statement; cited from earlier work; remark: listed apart in the source
[11] = tested on: A673 Ewing's sarcoma cells; assay: Cell viability after guaiacol treatment, A673; assay type: cell-based; settings: Homo sapiens
Procedure: (A) A673 Ewing's sarcoma cells were treated with increasing concentrations of guaiacol. […] (E) A673 cells (10^7) were injected subcutaneously in athymic nude mice and when the tumor reached 0.1 cm^3 in size, a daily intraperitoneal injection was initiated of either PBS or guaiacol (20 mg/kg) and tumor size was measured over 15 weeks.
Glycogen metabolism has not been evaluated as an anti-cancer target in ES. Guaiacol is a naturally occurring compound that is a GYS inhibitor. […] Cell viability after treatment of guaiacol was assessed at various concentrations for 48 hrs in three different ES cell lines (TC32, A673 and HS822T).

[12] = Tolerability in xenograft mice (body weight, motor and behavior testing); assay type: in vivo; settings: 20 mg/kg daily IP, athymic nude mice
Procedure: as §3

[13] = tested on: A549 xenografts; assay: A549 xenograft, tumor size; assay type: in vivo, athymic nude mice; settings: 20 mg/kg daily intraperitoneal vs PBS, 15 weeks
Procedure: (§4) FIGS. 32A-B show graphs illustrating in vitro and in vivo efficacy of the glycogen phosphorylase inhibitor 1,4-dideoxy-1,4-imino-d-arabinitol (DAB) in non-small cell lung cancer.
For in vivo tumor growth, H1299, H2030 and A549 cells were dissociated into single cells, counted and resuspended at 5×10^6 cells per 100 μl of 1:1 media/matrigel (BD). 8-10-week-old female Foxn1^nu/Foxn1^nu(Nude) mice (JAX Laboratories) were injected subcutaneously with 5×10^6 cells on both sides of the flanks. Tumor growth was measured twice a week by caliper in a non-blinded fashion. Tumors were allowed to grow upwards of 1000 mm^3. All mouse experiments were approved by the BCH Animal Care and Use Committee and by the University of Kentucky Institutional Animal Care and Use Committee, both accredited by the Association for Assessment and Accreditation of Laboratory Animal Care and were performed in accordance with relevant institutional and national guidelines and regulations.

[14] = tested on: A549 adenoma cells; assay: A549 cells treated with increasing concentrations of DAB; assay type: cell-based; settings: Homo sapiens, FIG. 32A
Excerpt: as §4

[15] = 2 mM metformin, A673-EV and A673-malin-OE cells

## CCC(=C/[C@H](C)C/C=C/C(C)=C/[C@@H](C)C(=O)[C@@H](C)[C@H](O)[C@@H](C)C/C(C)=C/C(=O)O)/C=C/[C@@H]1OC(=O)C=C[C@@H]1C [leptomycin]
[1]
  localization of endogenous GP: accumulation of endogenous GP in the nucleus

## CN(C)C(=N)N=C(N)N [metformin]
[2]; [15]
  p-ACC: only the malin-OE cell line showed a significant increase in p-ACC
  p-AMPK: increased p-AMPK in both EV and malin-OE cell lines
[2]; ES-cells, FIG. 20
  AMPK activity (p-ACC read out) response to AMPK activator: insensitive

## COc1ccccc1O [guaiacol, 2-methoxyphenol]
[3]
  bioavailability: high bioavailability
[4]
  reduction in total glycogen: 3 fold
[5]
  sensitivity to metformin induced AMPK activation (p-ACC): more sensitive to metformin induced AMPK activation, showing more prominent increase in p-ACC
[6]
  IC50: ~20 µM
[7]
  IC50: ~20 µM
[8]
  reduction in tumor volume at the experiment endpoint: 4 fold
[9]
  reduction in normalized glycogen levels: 3 fold
[10]
  toxicity in vivo: minimal toxicity in vivo
[11]; A673, 48 hrs, read-out: IC50 (50% cell viability)
  IC50: ~20 µM
[11]; A673 cells, FIG. 31B, read-out: IC50
  IC50: ~20 µM
[12]
  tolerability / adverse side effects: well tolerated in athymic nude mice without any adverse side effects

## OC[C@H]1NC[C@@H](O)[C@@H]1O [DAB, 1,4-dideoxy-1,4-imino-D-Arabinitol]
[13]
  tumor size / xenograft growth: failed to continue to proliferate over the course of 15 weeks; also recorded: significantly decreased tumor size as compared to PBS
[14]
  IC50: ~1.5 µM
